This note sets out measurements from article PMC8067754, “Active Transport of Hepatotoxic Pyrrolizidine Alkaloids in HepaRG Cells” (International Journal of Molecular Sciences, 2021).

The subject of this data set is HepaRG cells. In words: Time-dependent PA depletion and PANO formation in cell culture medium of HepaRG cells at 37 °C and 4 °C (LC-MS/MS). To be noted: for PANO formation in cell culture medium: 700 nM parent PA; for PA content in cell culture medium, Mean [%]: 700 nM PA, percent of initial PA concentration; for uptake and toxicity (grading): Figure 2a, toxicity grading with ref 41. How it is done: In order to measure time-dependent depletion of PA and PANO content in cell culture medium, cells were seeded at a density of 0.2 × 10^6 cells per well in a 6-well plate and cultivated as described in Section 4.2. After four weeks of cultivation, cells were adapted to serum-free medium and medium substituted with insulin, transferrin, selenium (ITS) serum extender (Capricorn Scientific, Ebsdorfergrund, Germany) 48 h prior to PA incubation for optimal LC-MS/MS measurements. […] Samples were taken after 2 h, 4 h, 8 h and 24 h.
Briefly, chromatographic separation of PA/PANO analytes was achieved on a 50 × 2.1 mm Kinetex ™ 2.6 μm CoreShell EVO C18 100 Å column protected by a SecurityGuard ™ ULTRA EVO C 18 2.1 mm guard column (both Phenomenex, Aschaffenburg, Germany) at a flow rate of 0.4 mL/min on a Shimadzu high performance liquid chromatography (HPLC) apparatus (LC-20AB, SIL-20AC HT, CTO-20AC, CBM-20A, Duisburg, Germany) coupled to an API4000 triple quadrupole MS (Sciex, Darmstadt, Germany). The following MS parameters were used for measurements in positive electrospray ionisation (ESI+) mode: ionisation voltage 2500 V, nebuliser gas 50 psi, heating gas 50 psi, curtain gas 30 psi, temperature 600 °C, collision gas level 7. The substance specific parameters are summarized in Kaltner et al. 2019 [79].

Several values for one entry are separate records, joined by “and”; a condition that tells them apart may be missing. Equal values may be shown once.

With `C/C=C1/C[C@@H](C)[C@@](C)(O)C(=O)OCC2=CC[N+]3([O-])CC[C@@H](OC1=O)[C@@H]23` (some centres unmarked) [senecionine N-oxide], the “PANO formed in cold-incubated cells, of the applied mother compound” value (HepaRG, 4 °C, 700 nM senecionine, up to 24 h, Figure 2d) is less than 1%. In addition, the “PANO formation in cell culture medium” value (HepaRG, 37 °C, up to 24 h) is “increased with time”.
Regarding `C/C=C1/C[C@@H](C)[C@](O)(CO)C(=O)OCC2=CC[N@@+]3([O-])CC[C@@H](OC1=O)[C@@H]23` [retrorsine N-oxide], the “PANO formation in cell culture medium” value (HepaRG, 37 °C, up to 24 h) is given as “increased with time”.
For the compound `C/C=C1/C[C@@H](C)[C@@](C)(O)C(=O)OC/C2=C/CN(C)CC[C@@H](OC1=O)C2=O` [Senkirkine, senkirkine], the “PA content in cell culture medium, Mean [%]” value (“PA content … [%]” for short) amounted to 116.261% (HepaRG, 4 °C (cold), 8h); 100.349% (HepaRG, 4 °C (cold), 24h); 51.3803% (HepaRG, 37 °C (warm), 24h). Further, for the setting “HepaRG, 37 °C, up to 24 h”, the “PANO formation in cell culture medium” value is listed as “did not form PANOs”. Moreover, the “uptake and toxicity (grading)” value (HepaRG) was “medium”. The “PA in medium, Mean [%]” value is, setting by setting: (cold, 0h) 100%; (cold, 8h) 99.7692%; (cold, 24h) 86.0777%; (warm, 0h) 100%; (warm, 2h) 96.897%; (warm, 4h) 92.4068%. Further, the “PA in medium, Mean [%]” value by setting is: (warm, 8h) 78.7411%; (warm, 24h) 45.8528%. In addition, the “PA in medium, single replicates (repl.)” value is 100% (cold, 0h); 96.9078% (cold, 2h); 94.744% and 91.9958% (cold, 4h); 96.8217% (cold, 8h); 79.1115% (cold, 24h); 100% (warm, 0h). Further, the “PA in medium, single replicates (repl.)” value is, setting by setting: (warm, 2h) 86.8159% and 96.0701%; (warm, 4h) 82.3204% and 92.3164%; (warm, 8h) 72.1889% and 78.0729% and 85.9614%; (warm, 24h) 40.9466% and 44.2184% and 52.3933%.
As for `C/C=C(/C)C(=O)O[C@H]1CCN2CC=C(COC(=O)[C@@](O)([C@@H](C)O)C(C)(C)O)[C@H]12` [Heliosupine, heliosupine], the “PA content … [%]” value was determined as 91.4819% (HepaRG, 4 °C (cold), 2h); 87.9748% (HepaRG, 4 °C (cold), 4h); 89.7595% (HepaRG, 4 °C (cold), 8h); 78.8823% (HepaRG, 4 °C (cold), 24h); 95.6507% (HepaRG, 37 °C (warm), 0h); 59.8398% (HepaRG, 37 °C (warm), 2h). Further, the “PA content … [%]” value is 37.2399% (HepaRG, 37 °C (warm), 4h); 12.933% (HepaRG, 37 °C (warm), 8h); 0.2071% (HepaRG, 37 °C (warm), 24h). For the same compound, the “reduction of PA content in the supernatant” value (HepaRG, 37 °C, after 24 h, 700 nM) is on record as “highest decline”. Besides, the “uptake and toxicity (grading)” value (HepaRG) is listed as “strong”. Besides, the “PA in medium, Mean [%]” value is, setting by setting: (cold, 0h) 100%; (cold, 4h) 98.142%; (cold, 8h) 98.6729%; (cold, 24h) 85.6503%; (warm, 0h) 100%; (warm, 2h) 66.3099%. In addition, the “PA in medium, Mean [%]” value is, setting by setting: (warm, 4h) 41.9165%; (warm, 8h) 15.145%; (warm, 24h) 0.2418%. Besides, the “PA in medium, single replicates (repl.)” value was 100% (cold, 0h); 95.0989% and 96.7114% (cold, 2h); 94.7313% and 89.2662% and 110.429% (cold, 4h); 94.1093% (cold, 8h); 84.4985% and 86.6382% (cold, 24h); 100% (warm, 0h). Moreover, the “PA in medium, single replicates (repl.)” value runs as follows: (warm, 2h) 44.4302% and 65.8608% and 88.6387%; (warm, 4h) 27.0977% and 40.0579% and 58.5941%; (warm, 8h) 8.52% and 13.2978% and 23.6169%; (warm, 24h) 0.3741% and 0.0766% and 0.2748%.
